From ChEMBL document CHEMBL1127311, “Derivatives of 4-(2'-methoxyphenyl)-1-[2'-(N-2"-pyridinyl-p-iodobenzamido)ethyl]pipera zine (p-MPPI) as 5-HT1A ligands” (J Med Chem, 1994)

Species on record: Rattus norvegicus
Experiment: not given
`COc1ccccc1N1CCN(CCN(C(=O)c2ccc(F)cc2)c2ccccn2)CC1` gave a Kd of 0.0003 µM.
Compound `COc1ccccc1N1CCN(CCN(C(=O)c2ccc(I)cc2)c2ccccn2)CC1` has a Kd of 0.0003 µM.

Each compound was assayed against T1, 5-hydroxytryptamine receptor 1A (Rattus norvegicus, UniProt P19327) (assay: biochemical).
T1 sequence (P19327 whole entry): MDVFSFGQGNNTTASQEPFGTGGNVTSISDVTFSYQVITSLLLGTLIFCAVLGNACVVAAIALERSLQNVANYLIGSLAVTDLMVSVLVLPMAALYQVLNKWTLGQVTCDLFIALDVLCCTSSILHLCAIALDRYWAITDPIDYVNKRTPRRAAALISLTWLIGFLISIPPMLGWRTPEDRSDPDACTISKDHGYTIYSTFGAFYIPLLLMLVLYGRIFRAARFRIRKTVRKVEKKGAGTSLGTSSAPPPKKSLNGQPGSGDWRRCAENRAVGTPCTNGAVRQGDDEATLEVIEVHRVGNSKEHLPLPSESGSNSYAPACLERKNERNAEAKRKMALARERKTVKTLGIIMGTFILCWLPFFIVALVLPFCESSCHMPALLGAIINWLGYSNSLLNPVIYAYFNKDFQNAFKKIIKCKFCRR
Description: In vitro binding affinity to 5-hydroxytryptamine 1A receptor using [125I](R)-(+)-trans-8-OH-PIPAT as radioligand in rat hippocampal homogenate
`COc1ccccc1N1CCN(C[C@@H](C(=O)NC(C)(C)C)c2ccccc2)CC1` gave an IC50 of 0.015 µM.

Target: T1, 5-hydroxytryptamine receptor 1A
Experiment: biochemical
Remark: another data set of the same source
Description: In vitro binding affinity to 5-hydroxytryptamine 1A receptor in rat hippocampal homogenate by [125I](R)-(+)-trans-8-OH-PIPAT displacement.
`COc1ccccc1N1CCN(CCN(C(=O)c2ccc(N)c(I)c2)c2ccccn2)CC1` was tested, and the Ki was 0.0177 µM.
`COc1ccccc1N1CCN(CCN(C(=O)c2ccc(N=[N+]=[N-])c(I)c2)c2ccccn2)CC1` was tested, and the Ki was 0.025 µM.
In the case of `COc1ccccc1N1CCN(CCN(C(=O)c2cccc(C)c2)c2ccccn2)CC1`, the Ki is reported as 0.0161 µM.
Compound `COc1ccccc1N1CCN(CCN(C(=O)c2ccc(N)cc2)c2ccccn2)CC1` has a Ki of 0.01 µM.
`COc1ccccc1N1CCN(CCN(C(=O)c2ccc(F)cc2)c2ccccn2)CC1` showed a Ki of 0.0032 µM.
In the case of `COc1ccccc1N1CCN(CCN(C(=O)c2ccc(C)cc2)c2ccccn2)CC1`, the Ki is reported as 0.0022 µM.
`COc1ccccc1N1CCN(CCN(C(=O)c2ccccc2)c2ccccn2)CC1` showed a Ki of 0.0025 µM.
With `COc1ccccc1N1CCN(CCN(C(=O)c2ccc(CCl)cc2)c2ccccn2)CC1` the Ki was 0.0035 µM.
In the case of `CCCCCCc1ccc(C(=O)N(CCN2CCN(c3ccccc3OC)CC2)c2ccccn2)cc1`, the Ki is reported as 0.0579 µM.
For `CCCCc1ccc(C(=O)N(CCN2CCN(c3ccccc3OC)CC2)c2ccccn2)cc1`, the Ki was 0.0132 µM.
Compound `COc1ccccc1N1CCN(CCN(C(=O)c2ccc(NC(=O)CCl)cc2)c2ccccn2)CC1` has a Ki of 0.022 µM.
In the case of `COc1ccccc1N1CCN(CCN(C(=O)c2ccc(C(C)(C)C)cc2)c2ccccn2)CC1`, the Ki is reported as 0.027 µM.
In the case of `CCCc1ccc(C(=O)N(CCN2CCN(c3ccccc3OC)CC2)c2ccccn2)cc1`, the Ki is reported as 0.0103 µM.
Work on `CCCCCCCc1ccc(C(=O)N(CCN2CCN(c3ccccc3OC)CC2)c2ccccn2)cc1` yielded a Ki of 0.0818 µM.
For `CCCCCc1ccc(C(=O)N(CCN2CCN(c3ccccc3OC)CC2)c2ccccn2)cc1`, the Ki was 0.075 µM.
For `CCc1ccc(C(=O)N(CCN2CCN(c3ccccc3OC)CC2)c2ccccn2)cc1`, the Ki was 0.0093 µM.
